Measured values as given in ChEMBL document CHEMBL1201862, “PubChem BioAssay data set” (2004).
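Briefly, cells in 96-well plates were exposed to five compound concentrations for 48 h, and endpoints were estimated by linear interpolation. GI50 marks 50% less growth.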 Calls of active or inactive are those of the source. Rule as the data show it: active = GI50 up to about 1.1 µM and inactive = higher.

Columns and labels:
Assay in all cases: NCI anticancer screen, dose series, 48 h
OVCAR-4 = tested on: OVCAR-4
HCT-15 = tested on: HCT-15
MOLT-4 = tested on: MOLT-4
786-0 = tested on: 786-0
K562 = tested on: K562
NCI-H23 = tested on: NCI-H23
HT-29 = tested on: HT-29
OVCAR-8 = tested on: OVCAR-8
LOX IMVI = tested on: LOX IMVI
OVCAR-5 = tested on: OVCAR-5
UACC-62 = tested on: UACC-62
HCT-116 = tested on: HCT-116
MDA-N = tested on: MDA-N
IGROV-1 = tested on: IGROV-1
CCRF-CEM = tested on: CCRF-CEM
SNB-75 = tested on: SNB-75
UACC-257 = tested on: UACC-257
NCI-H460 = tested on: NCI-H460
MCF7 = tested on: MCF7
NCI-H226 = tested on: NCI-H226
HL-60 = tested on: HL-60
M14 = tested on: M14
A498 = tested on: A498
HOP-92 = tested on: HOP-92
SF-539 = tested on: SF-539
T47D = tested on: T47D
HOP-62 = tested on: HOP-62
Malme-3M = tested on: Malme-3M
SF-295 = tested on: SF-295
SW-620 = tested on: SW-620
NCI-H522 = tested on: NCI-H522
ACHN = tested on: ACHN
SK-MEL-5 = tested on: SK-MEL-5
TK-10 = tested on: TK-10
RPMI-8226 = tested on: RPMI-8226
OVCAR-3 = tested on: OVCAR-3
SK-MEL-2 = tested on: SK-MEL-2
KM12 = tested on: KM12
SK-MEL-28 = tested on: SK-MEL-28
PC-3 = tested on: PC-3
EKVX = tested on: EKVX
COLO 205 = tested on: COLO 205
MDA-MB-231 = tested on: MDA-MB-231
DU-145 = tested on: DU-145
SR = tested on: SR
SNB-19 = tested on: SNB-19
MDA-MB-435 = tested on: MDA-MB-435
BT-549 = tested on: BT-549
CAKI-1 = tested on: CAKI-1
SN12C = tested on: SN12C
A549 = tested on: A549
U-251 = tested on: U-251
NCI/ADR-RES = tested on: NCI/ADR-RES
SK-OV-3 = tested on: SK-OV-3
SF-268 = tested on: SF-268
UO-31 = tested on: UO-31
HCC 2998 = tested on: HCC 2998
RXF 393 = tested on: RXF 393
Hs-578T = tested on: Hs-578T

CCOc1ccc(-n2nnc3c(N)nc(N)nc32)cc1 was tested, and the GI50 (OVCAR-4) was > 100 µM (inactive), the GI50 (HCT-15) was over 100 µM and the GI50 (MOLT-4) was > 100 µM (inactive). The GI50 (786-0) was > 100 µM (inactive), the GI50 (K562) was > 100 µM (inactive) and the GI50 (NCI-H23) was > 100 µM (inactive). The GI50 (HT-29) was > 100 µM (inactive), the GI50 (OVCAR-8) was > 100 µM (inactive) and the GI50 (LOX IMVI) was > 100 µM (inactive). For the same molecule, the GI50 (OVCAR-5) was > 100 µM (inactive), the GI50 (UACC-62) was > 100 µM (inactive) and the GI50 (HCT-116) was > 100 µM (inactive). The GI50 (MDA-N) was > 100 µM (inactive), the GI50 (IGROV-1) was > 100 µM (inactive) and the GI50 (CCRF-CEM) was > 100 µM (inactive). The GI50 (SNB-75) was > 100 µM (inactive), the GI50 (UACC-257) was > 100 µM (inactive) and the GI50 (NCI-H460) was > 100 µM (inactive). The GI50 (MCF7) was > 100 µM (inactive), the GI50 (NCI-H226) was > 100 µM (inactive) and the GI50 (HL-60) was > 10 µM (inactive). The GI50 (M14) was > 100 µM (inactive), the GI50 (A498) was > 100 µM (inactive) and the GI50 (HOP-92) was > 100 µM (inactive). The GI50 (SF-539) was > 100 µM (inactive), the GI50 (T47D) was > 100 µM (inactive) and the GI50 (HOP-62) was > 100 µM (inactive). For the same molecule, the GI50 (Malme-3M) was > 100 µM (inactive), the GI50 (SF-295) was > 100 µM (inactive) and the GI50 (SW-620) was > 100 µM (inactive). The GI50 (NCI-H522) was > 100 µM (inactive), the GI50 (ACHN) was > 100 µM (inactive) and the GI50 (SK-MEL-5) was > 100 µM (inactive). The GI50 (TK-10) was > 100 µM (inactive), the GI50 (RPMI-8226) was > 100 µM (inactive) and the GI50 (OVCAR-3) was > 100 µM (inactive). The GI50 (SK-MEL-2) was > 100 µM (inactive), the GI50 (KM12) was > 100 µM (inactive) and the GI50 (SK-MEL-28) was > 100 µM (inactive). For the same molecule, the GI50 (PC-3) was > 100 µM (inactive), the GI50 (EKVX) was > 100 µM (inactive) and the GI50 (COLO 205) was > 100 µM (inactive). For the same molecule, the GI50 (MDA-MB-231) was > 100 µM (inactive), the GI50 (DU-145) was > 100 µM (inactive) and the GI50 (SR) was > 100 µM (inactive). The GI50 (SNB-19) was 29.1 µM (inactive), the GI50 (MDA-MB-435) was > 100 µM (inactive) and the GI50 (BT-549) was > 100 µM (inactive). For the same molecule, the GI50 (CAKI-1) was > 100 µM (inactive), the GI50 (SN12C) was > 100 µM (inactive) and the GI50 (A549) was > 100 µM (inactive). The GI50 (U-251) was > 100 µM (inactive), the GI50 (NCI/ADR-RES) was > 100 µM (inactive) and the GI50 (SK-OV-3) was > 100 µM (inactive).

In the case of O=C(c1cc(Cl)ccc1Cl)N1CCN(C(=O)c2cc(Cl)ccc2Cl)CC1, the GI50 (OVCAR-4) is reported as > 100 µM (inactive), the GI50 (HCT-15) is reported as over 100 µM and the GI50 (MOLT-4) is reported as > 100 µM (inactive). For the same molecule, the GI50 (786-0) was 91.2 µM (inactive), the GI50 (K562) was > 100 µM (inactive) and the GI50 (NCI-H23) was > 100 µM (inactive). For the same molecule, the GI50 (HT-29) was > 100 µM (inactive), the GI50 (OVCAR-8) was 30.2 µM (inactive) and the GI50 (LOX IMVI) was > 100 µM (inactive). The GI50 (OVCAR-5) was > 100 µM (inactive), the GI50 (HCT-116) was > 100 µM (inactive) and the GI50 (MDA-N) was > 100 µM (inactive). The GI50 (IGROV-1) was > 100 µM (inactive), the GI50 (CCRF-CEM) was > 100 µM (inactive) and the GI50 (SNB-75) was 33.1 µM (inactive). For the same molecule, the GI50 (UACC-257) was > 100 µM (inactive), the GI50 (NCI-H460) was > 100 µM (inactive) and the GI50 (MCF7) was > 100 µM (inactive). The GI50 (NCI-H226) was > 100 µM (inactive), the GI50 (HL-60) was > 100 µM (inactive) and the GI50 (M14) was > 100 µM (inactive). The GI50 (A498) was 27 µM (inactive), the GI50 (SF-268) was > 100 µM (inactive) and the GI50 (HOP-92) was 67.1 µM (inactive). For the same molecule, the GI50 (SF-539) was > 100 µM (inactive), the GI50 (T47D) was 48.8 µM (inactive) and the GI50 (UO-31) was > 100 µM (inactive). For the same molecule, the GI50 (HOP-62) was 38.8 µM (inactive), the GI50 (Malme-3M) was > 100 µM (inactive) and the GI50 (SF-295) was 91 µM (inactive). The GI50 (SW-620) was > 100 µM (inactive), the GI50 (NCI-H522) was 34.4 µM (inactive) and the GI50 (ACHN) was 94.4 µM (inactive). For the same molecule, the GI50 (SK-MEL-5) was 55.6 µM (inactive), the GI50 (TK-10) was > 100 µM (inactive) and the GI50 (RPMI-8226) was > 100 µM (inactive). For the same molecule, the GI50 (OVCAR-3) was > 100 µM (inactive), the GI50 (HCC 2998) was > 100 µM (inactive) and the GI50 (KM12) was > 100 µM (inactive). The GI50 (RXF 393) was 67.1 µM (inactive), the GI50 (SK-MEL-28) was > 100 µM (inactive) and the GI50 (PC-3) was > 100 µM (inactive). The GI50 (EKVX) was > 100 µM (inactive), the GI50 (Hs-578T) was > 100 µM (inactive) and the GI50 (MDA-MB-231) was > 100 µM (inactive). For the same molecule, the GI50 (DU-145) was > 100 µM (inactive), the GI50 (SR) was > 100 µM (inactive) and the GI50 (SNB-19) was > 100 µM (inactive). For the same molecule, the GI50 (BT-549) was > 100 µM (inactive), the GI50 (CAKI-1) was 97.9 µM (inactive) and the GI50 (SN12C) was > 100 µM (inactive). The GI50 (A549) was > 100 µM (inactive) and the GI50 (U-251) was > 100 µM (inactive).
